This test is described as follows: LPS binding by Plasmon Surface Resonance (Biacore). To be noted: M6 immobilised on BIACORE sensorchip. On the procedure:
FIG. 11. Binding analysis between MAP M6 peptide and LPS in BIACORE. […] On the y-axis are shown the Units of Response derived from the binding between LPS and M6 as a function of time expressed in seconds (on the x-axis)
The ability of MAP peptides to perforate the bacterial membrane was evaluated measuring the activity of cytoplasmatic beta-galactosidase (24) in surpernatants of E. coli strain ML-35 incubated with the peptide and using p-nitrophenyl-β-D-galactopyranoside (pNPG) as a substrate. pNPG is digested by beta-galactosidase, therefore releasing p-nitro-phenolate detectable by spectrophotometric reading at 420 nm (FIG. 10). […] The activity of dendrimeric peptides against the inner membrane was evaluated at concentrations of 16, 32 and 64 μg/ml. All dendrimeric peptides permeabilized bacterial inner membrane at 16 μg/ml (FIG. 9). Permeabilization occurred after a lag of less than 1 minute, and the rate of permeabilization depended on peptide concentration (not shown). Moreover, the ability of the M6 MAP peptide to bind the bacterial lipopolysaccharide (LPS) was assayed by Plasmon Surface Resonance in a Biacore 1000 instrument (FIG. 11) using a protocol perfected by the authors (26).

From patent US8268961B2, “Antibacterial peptides and analogues thereof” (Universita Degli Studi di Siena, priority 2004, dated 2012) come the findings set out here.

Entries after “also recorded” stand apart in the source; their conditions may differ. Positions of bridges follow the written chain, without caps; N, C: chain ends. Chains are numbered I, II in the order given. No end group written: not given here.

Turning to “I: QKKIRVRLSAKKA-OH / II: QKKIRVRLSAK / III: QKKIRVRLSA / IV: QKKIRVRLSA (amide I:11-IV:C, I:12-II:C, II:11-III:C) [M6, QKKIRVRLSA]”, the “Binding to bacterial lipopolysaccharide (LPS), sensorgram” value is recorded as “effectively binds; also recorded: rapid binding”.
